Where two headings read alike, the source gives them in different places.

For test [1], the target named is T1, PI3K delta (PI3 Kd) (Homo sapiens, UniProt O00329).
T1 construct: endogenous in cells; host or cells: Jurkat, clone E6-1 (ATCC TIB-152) cell lysate
The test can be described thus: kinobeads assay, PI3K delta. It is filed as binding. In a few lines: (§1)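 IC50 values came from dose-response curves after test compound (1:3 series) competed with an immobilized phenylmorpholin-chromen affinity matrix for kinases in Jurkat lysate at 5 mg/mL protein. Eluted captured DNA-PK and PI3Kδ were measured by specific-antibody dot blot and infrared imaging. Buffer was Tris pH 7.4, NP40, MgCl2, NaCl, vanadate, DTT, NaF.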

In test [2] the target is T2, DNA-dependent protein kinase (DNA-PK) (Homo sapiens, UniProt P78527).
T2 construct: endogenous in cells; host or cells: Jurkat, clone E6-1 (ATCC TIB-152) cell lysate
The test can be described thus: kinobeads assay, DNA-PK. It is filed as binding. In a few lines:
as §1

Setting [3] is: Further Kinobeads Data, read-out: PI3Kd.
Where [4] appears, read: Further Kinobeads Data, read-out: DNAPK.
Where [5] appears, read: kinobeads assay, Table 4, read-out: Inhibition values (IC50) PI3Kd.
Setting [6] is: kinobeads assay, Table 6, read-out: Inhibition values (IC50) PI3Kd.
The mark [7] stands for this setting: kinobeads assay, Table 4, read-out: Inhibition values (IC50) DNA-PK.
Setting [8] is: kinobeads assay, Table 6, read-out: Inhibition values (IC50) DNAPK.

T2 sequence (P78527 whole entry): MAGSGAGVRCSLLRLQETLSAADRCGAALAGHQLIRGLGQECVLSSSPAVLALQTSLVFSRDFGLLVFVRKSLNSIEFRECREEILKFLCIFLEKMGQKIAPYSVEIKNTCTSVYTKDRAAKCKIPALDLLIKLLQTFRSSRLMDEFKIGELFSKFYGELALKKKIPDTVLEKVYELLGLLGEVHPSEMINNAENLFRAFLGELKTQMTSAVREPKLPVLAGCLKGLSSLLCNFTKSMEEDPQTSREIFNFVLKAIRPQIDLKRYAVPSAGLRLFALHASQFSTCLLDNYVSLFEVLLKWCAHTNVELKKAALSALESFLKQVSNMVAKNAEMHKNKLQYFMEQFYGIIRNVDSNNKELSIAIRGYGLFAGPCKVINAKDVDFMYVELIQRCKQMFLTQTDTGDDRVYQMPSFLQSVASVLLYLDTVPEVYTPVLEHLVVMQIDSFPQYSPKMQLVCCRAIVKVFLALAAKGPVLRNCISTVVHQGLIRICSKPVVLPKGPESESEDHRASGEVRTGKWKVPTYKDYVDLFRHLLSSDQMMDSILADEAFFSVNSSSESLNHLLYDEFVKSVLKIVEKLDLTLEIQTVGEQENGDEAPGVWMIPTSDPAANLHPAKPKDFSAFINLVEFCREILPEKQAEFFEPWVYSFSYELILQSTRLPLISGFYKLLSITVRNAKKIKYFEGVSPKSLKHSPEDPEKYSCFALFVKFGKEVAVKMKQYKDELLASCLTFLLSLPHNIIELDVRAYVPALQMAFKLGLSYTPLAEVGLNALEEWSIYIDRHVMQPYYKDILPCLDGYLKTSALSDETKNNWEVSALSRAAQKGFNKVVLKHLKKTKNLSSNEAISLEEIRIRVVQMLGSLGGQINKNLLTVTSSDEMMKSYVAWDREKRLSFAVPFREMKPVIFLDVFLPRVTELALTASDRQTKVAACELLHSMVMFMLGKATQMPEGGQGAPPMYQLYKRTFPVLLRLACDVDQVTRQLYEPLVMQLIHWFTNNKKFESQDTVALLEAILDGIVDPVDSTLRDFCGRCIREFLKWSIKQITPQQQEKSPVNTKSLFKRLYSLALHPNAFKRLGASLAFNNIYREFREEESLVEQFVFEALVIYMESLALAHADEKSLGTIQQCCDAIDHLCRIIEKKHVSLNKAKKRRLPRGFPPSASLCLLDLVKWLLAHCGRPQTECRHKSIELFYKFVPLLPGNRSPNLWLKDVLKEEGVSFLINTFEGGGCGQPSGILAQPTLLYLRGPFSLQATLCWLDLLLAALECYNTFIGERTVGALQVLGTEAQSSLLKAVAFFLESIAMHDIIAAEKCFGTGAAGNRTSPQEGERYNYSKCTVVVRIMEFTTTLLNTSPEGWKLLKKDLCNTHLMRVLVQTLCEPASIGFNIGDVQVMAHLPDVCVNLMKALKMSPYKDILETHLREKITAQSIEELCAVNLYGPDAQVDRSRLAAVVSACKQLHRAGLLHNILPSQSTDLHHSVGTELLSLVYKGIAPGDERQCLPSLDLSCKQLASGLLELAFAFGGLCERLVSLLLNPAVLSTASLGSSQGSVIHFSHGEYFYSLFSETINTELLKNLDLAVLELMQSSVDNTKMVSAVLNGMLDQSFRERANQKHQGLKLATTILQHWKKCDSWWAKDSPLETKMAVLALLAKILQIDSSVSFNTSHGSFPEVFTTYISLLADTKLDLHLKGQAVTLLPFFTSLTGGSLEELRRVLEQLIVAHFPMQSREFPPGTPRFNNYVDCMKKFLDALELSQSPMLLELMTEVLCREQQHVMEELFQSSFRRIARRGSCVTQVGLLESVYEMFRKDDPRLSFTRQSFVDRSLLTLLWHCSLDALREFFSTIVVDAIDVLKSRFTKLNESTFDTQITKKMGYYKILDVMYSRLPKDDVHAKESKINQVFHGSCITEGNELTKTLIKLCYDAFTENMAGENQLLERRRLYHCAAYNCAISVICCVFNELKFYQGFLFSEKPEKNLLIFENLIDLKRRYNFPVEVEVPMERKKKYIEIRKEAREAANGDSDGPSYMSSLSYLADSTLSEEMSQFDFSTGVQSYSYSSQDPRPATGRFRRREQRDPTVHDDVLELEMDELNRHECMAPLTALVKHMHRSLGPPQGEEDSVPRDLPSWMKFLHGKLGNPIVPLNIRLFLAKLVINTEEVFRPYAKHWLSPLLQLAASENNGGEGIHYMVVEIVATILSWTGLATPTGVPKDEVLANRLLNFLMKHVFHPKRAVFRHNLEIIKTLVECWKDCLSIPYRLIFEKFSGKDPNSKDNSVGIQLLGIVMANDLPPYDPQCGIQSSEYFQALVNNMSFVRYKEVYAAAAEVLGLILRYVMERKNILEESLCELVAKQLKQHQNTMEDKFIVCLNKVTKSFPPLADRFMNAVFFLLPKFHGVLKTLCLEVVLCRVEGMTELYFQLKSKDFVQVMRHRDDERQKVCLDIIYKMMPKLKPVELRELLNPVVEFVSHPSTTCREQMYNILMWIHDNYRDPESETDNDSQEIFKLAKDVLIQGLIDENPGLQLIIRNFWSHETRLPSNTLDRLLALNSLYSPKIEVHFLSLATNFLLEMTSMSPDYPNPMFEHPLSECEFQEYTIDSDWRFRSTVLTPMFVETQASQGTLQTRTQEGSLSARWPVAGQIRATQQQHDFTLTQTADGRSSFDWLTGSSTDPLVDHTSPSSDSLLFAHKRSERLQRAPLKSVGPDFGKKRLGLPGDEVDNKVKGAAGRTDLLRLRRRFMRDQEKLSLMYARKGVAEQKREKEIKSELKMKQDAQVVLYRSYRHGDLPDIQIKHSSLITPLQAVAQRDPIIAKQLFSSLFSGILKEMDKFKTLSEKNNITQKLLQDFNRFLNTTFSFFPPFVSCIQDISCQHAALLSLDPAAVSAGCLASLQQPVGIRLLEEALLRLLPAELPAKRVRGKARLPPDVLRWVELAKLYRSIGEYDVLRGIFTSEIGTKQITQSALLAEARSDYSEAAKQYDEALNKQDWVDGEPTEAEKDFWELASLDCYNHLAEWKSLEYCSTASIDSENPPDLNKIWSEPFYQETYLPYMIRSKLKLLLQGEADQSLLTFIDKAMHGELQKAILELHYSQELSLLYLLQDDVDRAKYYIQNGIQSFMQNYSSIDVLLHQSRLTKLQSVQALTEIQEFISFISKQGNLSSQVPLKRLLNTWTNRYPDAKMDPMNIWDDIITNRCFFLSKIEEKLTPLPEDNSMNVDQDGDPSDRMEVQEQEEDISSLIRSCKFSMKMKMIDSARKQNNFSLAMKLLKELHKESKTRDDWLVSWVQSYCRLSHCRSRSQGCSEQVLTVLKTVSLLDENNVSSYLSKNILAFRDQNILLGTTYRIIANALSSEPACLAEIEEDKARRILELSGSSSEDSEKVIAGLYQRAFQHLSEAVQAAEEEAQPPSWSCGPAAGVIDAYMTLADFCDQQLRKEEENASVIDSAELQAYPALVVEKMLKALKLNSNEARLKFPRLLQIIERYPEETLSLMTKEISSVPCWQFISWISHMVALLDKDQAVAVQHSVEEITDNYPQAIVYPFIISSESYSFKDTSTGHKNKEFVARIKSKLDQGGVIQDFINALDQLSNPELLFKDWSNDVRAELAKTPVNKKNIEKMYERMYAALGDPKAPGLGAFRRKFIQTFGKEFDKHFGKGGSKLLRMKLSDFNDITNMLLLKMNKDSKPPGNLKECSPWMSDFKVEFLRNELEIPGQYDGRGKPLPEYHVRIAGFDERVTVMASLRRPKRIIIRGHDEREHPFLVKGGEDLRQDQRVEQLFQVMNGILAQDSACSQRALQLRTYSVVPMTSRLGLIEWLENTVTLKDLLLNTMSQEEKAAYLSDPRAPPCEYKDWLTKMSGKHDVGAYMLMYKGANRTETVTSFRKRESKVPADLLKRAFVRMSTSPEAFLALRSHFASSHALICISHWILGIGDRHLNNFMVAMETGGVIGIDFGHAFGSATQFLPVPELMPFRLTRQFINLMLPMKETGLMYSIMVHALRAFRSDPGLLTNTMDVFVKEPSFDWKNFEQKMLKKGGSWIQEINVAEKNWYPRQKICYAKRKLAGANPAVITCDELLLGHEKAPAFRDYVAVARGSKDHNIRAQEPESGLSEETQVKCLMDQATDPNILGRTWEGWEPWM

As for `COC(=O)N1Cc2nc(-c3ccc(NC(=O)NCCF)cc3F)nc(N3CCOC[C@@H]3C)c2C1` [Example 183, (S)-methyl 2-(2-fluoro-4-(3-(2-fluoroethyl)ureido)phenyl)-4-(3-methylmorpholino)-5H-pyrrolo[3,4-d]pyrimidine-6(7H)-carboxylate], the IC50 in test [1] (setting [3]) and in test [2] (setting [4]) was over 10 µM throughout.

With `CCNC(=O)Nc1ccc(-c2nc3c(c(N4CCOCC4)n2)CN(C(=O)OC)C3)c(F)c1` [Example 162, methyl 2-(4-(3-ethylureido)-2-fluorophenyl)-4-morpholino-5H-pyrrolo[3,4-d]pyrimidine-6(7H)-carboxylate], the figures for the IC50 in test [1] (setting [3]) and in test [2] (setting [4]) were 1 to 10 µM and over 10 µM, respectively.

On to `CCCNC(=O)Nc1ccc(-c2nc3c(c(N4CCOC[C@@H]4C)n2)CN(CC2CC2)C3)cc1` [Example 49, (S)-1-(4-(6-(cyclopropylmethyl)-4-(3-methylmorpholino)-6,7-dihydro-5H-pyrrolo[3,4-d]pyrimidin-2-yl)phenyl)-3-propylurea], for which the IC50 in test [1] (setting [5]), in test [1] (setting [6]), in test [2] (setting [7]) and in test [2] (setting [8]) was over 10 µM each time.

Take `CC(C)NC(=O)N1CCc2c(nc(-c3ccc(NC(=O)NC4CC4)cc3F)nc2N2CCOC[C@@H]2C)C1` [Example 189, (S)-2-(4-(3-cyclopropylureido)-2-fluorophenyl)-N-isopropyl-4-(3-methylmorpholino)-5,6-dihydropyrido[3,4-d]pyrimidine-7(8H)-carboxamide]: the IC50 in test [1] (setting [3]) and in test [2] (setting [4]) was over 10 µM throughout.

Turning to `CCNC(=O)Nc1ccc(-c2nc3c(c(N4CCOC[C@@H]4C)n2)CN(C(=O)C(C)C)C3)cc1` [Example 21, (S)-1-ethyl-3-(4-(6-isobutyryl-4-(3-methylmorpholino)-6,7-dihydro-5H-pyrrolo[3,4-d]pyrimidin-2-yl)phenyl)urea], the IC50 in test [1] (setting [5]) was 1 to 10 µM; in test [1] (setting [6]), 1 to 10 µM; in test [2] (setting [7]) it was over 10 µM; in test [2] (setting [8]), over 10 µM.

For `C[C@H]1COCCN1c1nc(-c2ccc(NC(=O)NC3CC3)cc2)nc2c1CCN(CC(C)(C)C)C2` [Example 41, (S)-1-cyclopropyl-3-(4-(4-(3-methylmorpholino)-7-neopentyl-5,6,7,8-tetrahydropyrido[3,4-d]pyrimidin-2-yl)phenyl)urea], the IC50 in test [1] (setting [5]), in test [1] (setting [6]), in test [2] (setting [7]) and in test [2] (setting [8]) was over 10 µM throughout.

In the case of `CC(C)NC(=O)Nc1ccc(-c2nc3c(c(N4CCOC[C@@H]4C)n2)CN(CC2CC2)C3)cc1` [Example 50, (S)-1-(4-(6-(cyclopropylmethyl)-4-(3-methylmorpholino)-6,7-dihydro-5H-pyrrolo[3,4-d]pyrimidin-2-yl)phenyl)-3-isopropylurea], the IC50 in test [1] (setting [5]), in test [1] (setting [6]), in test [2] (setting [7]) and in test [2] (setting [8]) was over 10 µM in each case.

On to `C[C@H]1COCCN1c1nc(-c2ccc(NC(=O)NC3CC3)cc2F)nc2c1CN(C(=O)N(C)C)C2` [Example 178, (S)-2-(4-(3-cyclopropylureido)-2-fluorophenyl)-N,N-dimethyl-4-(3-methylmorpholino)-5H-pyrrolo[3,4-d]pyrimidine-6(7H)-carboxamide], for which the IC50 in test [1] (setting [3]) and in test [2] (setting [4]) was over 10 µM in each case.

With `COC(=O)N1Cc2nc(-c3ccc(NC(=O)NC4CC4)cc3F)nc(N3CCOC[C@H]3C)c2C1` [Example 180, (R)-methyl 2-(4-(3-cyclopropylureido)-2-fluorophenyl)-4-(3-methylmorpholino)-5H-pyrrolo[3,4-d]pyrimidine-6(7H)-carboxylate], the results for the IC50 in test [1] (setting [3]) and in test [2] (setting [4]) were over 10 µM and 1 to 10 µM, respectively.

As to `CC(C)N1Cc2nc(-c3ccc(NC(=O)NCCO)cc3F)nc(N3CCOC[C@@H]3C)c2C1` [Example 187, (S)-1-(3-fluoro-4-(6-isopropyl-4-(3-methylmorpholino)-6,7-dihydro-5H-pyrrolo[3,4-d]pyrimidin-2-yl)phenyl)-3-(2-hydroxyethyl)urea], the IC50 in test [1] (setting [3]) and in test [2] (setting [4]) was over 10 µM each time.

As for `CC(C)N1Cc2nc(-c3ccc(NC(=O)NC4CC4)cc3F)nc(N3CCOC[C@@H]3C)c2C1` [Example 172, (S)-1-cyclopropyl-3-(3-fluoro-4-(6-isopropyl-4-(3-methylmorpholino)-6,7-dihydro-5H-pyrrolo[3,4-d]pyrimidin-2-yl)phenyl)urea], the IC50 in test [1] (setting [3]) and in test [2] (setting [4]) was 1 to 10 µM each time.

On to `C[C@@H]1COCCN1c1nc(-c2ccc(NC(=O)NC3CC3)cc2F)nc2c1CN(C(=O)C1CC1)C2` [Example 188, (R)-1-(4-(6-(cyclopropanecarbonyl)-4-(3-methylmorpholino)-6,7-dihydro-5H-pyrrolo[3,4-d]pyrimidin-2-yl)-3-fluorophenyl)-3-cyclopropylurea], for which the IC50 in test [1] (setting [3]) and in test [2] (setting [4]) was over 10 µM in each case.

Regarding `CCNC(=O)Nc1ccc(-c2nc3c(c(N4CCOC[C@@H]4C)n2)CN(C)C3)cc1` [Example 26, (S)-1-ethyl-3-(4-(6-methyl-4-(3-methylmorpholino)-6,7-dihydro-5H-pyrrolo[3,4-d]pyrimidin-2-yl)phenyl)urea], the IC50 in test [1] (setting [5]), in test [1] (setting [6]), in test [2] (setting [7]) and in test [2] (setting [8]) was over 10 µM throughout.

`CCNC(=O)Nc1ccc(-c2nc3c(c(N4CCOC[C@@H]4C)n2)CCN(C(=O)c2ccc(F)cc2)C3)cc1` [Example 24, (S)-1-ethyl-3-(4-(7-(4-fluorobenzoyl)-4-(3-methylmorpholino)-5,6,7,8-tetrahydropyrido[3,4-d]pyrimidin-2-yl)phenyl)urea]: the IC50 in test [1] (setting [5]), in test [1] (setting [6]), in test [2] (setting [7]) and in test [2] (setting [8]) was over 10 µM each time.

With `C[C@H]1COCCN1c1nc(-c2ccc(NC(=O)NC3CC3)cc2)nc2c1CN(C)C2` [Example 38, (S)-1-cyclopropyl-3-(4-(6-methyl-4-(3-methylmorpholino)-6,7-dihydro-5H-pyrrolo[3,4-d]pyrimidin-2-yl)phenyl)urea], the IC50 in test [1] (setting [5]), in test [1] (setting [6]), in test [2] (setting [7]) and in test [2] (setting [8]) was over 10 µM throughout.

On to `CCNC(=O)Nc1ccc(-c2nc3c(c(N4CCOC[C@@H]4C)n2)CCNC3)cc1` [Example 13, (S)-1-ethyl-3-(4-(4-(3-methylmorpholino)-5,6,7,8-tetrahydropyrido[3,4-d]pyrimidin-2yl)phenyl)urea], for which the IC50 in test [1] (setting [5]), in test [1] (setting [6]), in test [2] (setting [7]) and in test [2] (setting [8]) was over 10 µM throughout.

On to `CCNC(=O)Nc1ccc(-c2nc3c(c(N4CCOC[C@@H]4C)n2)CN(C(=O)C(C)(C)C)C3)cc1` [Example 22, (S)-1-ethyl-3-(4-(4-(3-methylmorpholino)-6-pivaloyl-6,7-dihydro-5H-pyrrolo[3,4-d]pyrimidin-2-yl)phenyl)urea], for which the IC50 in test [1] (setting [5]), in test [1] (setting [6]), in test [2] (setting [7]) and in test [2] (setting [8]) was over 10 µM throughout.

As for `CCNC(=O)Nc1ccc(-c2nc3c(c(N4CCOC[C@@H]4C)n2)CCN(C(=O)C2CC2)C3)cc1` [Example 56, (S)-1-(4-(7-(cyclopropanecarbonyl)-4-(3-methylmorpholino)-5,6,7,8-tetrahydropyrido[3,4-d]pyrimidin-2-yl)phenyl)-3-ethylurea], the IC50 in test [1] (setting [5]), in test [1] (setting [6]), in test [2] (setting [7]) and in test [2] (setting [8]) was over 10 µM throughout.

As to `C[C@H]1COCCN1c1nc(-c2ccc(NC(N)=O)cc2)nc2c1CN(CC1CC1)C2` [Example 48, (S)-1-(4-(6-(cyclopropylmethyl)-4-(3-methylmorpholino)-6,7-dihydro-5H-pyrrolo[3,4-d]pyrimidin-2-yl)phenyl)urea], the IC50 in test [1] (setting [5]) is 1 to 10 µM; in test [1] (setting [6]) it was 1 to 10 µM; in test [2] (setting [7]) it was over 10 µM; in test [2] (setting [8]) it was over 10 µM.

Take `C[C@H]1COCCN1c1nc(-c2ccc(NC(=O)NC3CC3)cc2)nc2c1CN(CC1CC1)C2` [Example 30]: the IC50 in test [1] (setting [5]), in test [1] (setting [6]), in test [2] (setting [7]) and in test [2] (setting [8]) was over 10 µM each time.

With `CCNC(=O)Nc1ccc(-c2nc3c(c(N4CCOC[C@@H]4C)n2)CN(C(C)=O)C3)cc1` [Example 18, (S)-1-(4-(6-acetyl-4-(3-methylmorpholino)-6,7-dihydro-5H-pyrrolo[3,4-d]pyrimidin-2-yl)phenyl)-3-ethylurea], the IC50 in test [1] (setting [5]) is 1 to 10 µM; in test [1] (setting [6]) it was 1 to 10 µM; in test [2] (setting [7]) it was over 10 µM; in test [2] (setting [8]), over 10 µM.

`C[C@H]1COCCN1c1nc(-c2ccc(NC(=O)NC3CC3)cc2)nc2c1CNCC2` [Example 11, (S)-1-cyclopropyl-3-(4-(4-(3-methylmorpholino)-5,6,7,8-tetrahydropyrido[4,3-d]pyrimidin-2-yl)phenyl)urea]: the IC50 in test [1] (setting [5]), in test [1] (setting [6]), in test [2] (setting [7]) and in test [2] (setting [8]) was over 10 µM each time.

In the case of `CC(C)N1Cc2nc(-c3ccc(NC(=O)NCCF)cc3F)nc(N3CCOC[C@@H]3C)c2C1` [Example 186, (S)-1-(3-fluoro-4-(6-isopropyl-4-(3-methylmorpholino)-6,7-dihydro-5H-pyrrolo[3,4-d]pyrimidin-2-yl)phenyl)-3-(2-fluoroethyl)urea], the IC50 is 1 to 10 µM in test [1] (setting [3]) and over 10 µM in test [2] (setting [4]).

With `CCOC(=O)N1Cc2nc(-c3ccc(NC(=O)NC4CC4)cc3F)nc(N3CCOC[C@H]3C)c2C1` [Example 179, (R)-ethyl 2-(4-(3-cyclopropylureido)-2-fluorophenyl)-4-(3-methylmorpholino)-5H-pyrrolo[3,4-d]pyrimidine-6(7H)-carboxylate], the IC50 in test [1] (setting [3]) and in test [2] (setting [4]) was over 10 µM each time.

For the origin of these results see patent US8785457B2 (Cellzome Limited, priority 2009, dated 2014).
